In PubChem BioAssay AID330 (DTP/NCI, 2004):
Where “and” joins values, the source holds several entries; their conditions need not be identical. Identical values can stand only once. Inconclusive results and toxic doses are left out. How the source made its calls: active means survival T/C of 150% or more; inactive means T/C below 125% in these data.

Tested on: P388 leukemia ip, CD2F1 mice, survival T/C
Assay: NCI In Vivo Anticancer Drug Screen. Data for tumor model P388 Leukemia (intraperitoneal) in CD2F1 (CDF1) mice
Settings: endpoint: median survival time, higher = longer survival
Procedure, shortened: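 Mice carrying the transplanted tumor received test compound or vehicle. Survival was recorded in each group, and the value is the treated-group measurement divided by that of the vehicle-treated control group.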

[1] = dose: 50.0 mg/kg/injection, schedule: Q01DX009 (ip), vehicle: saline with Tween-80
[2] = dose: 100.0 mg/kg/injection, schedule: Q01DX009 (ip), vehicle: saline with Tween-80
[3] = dose: 200.0 mg/kg/injection, schedule: Q01DX009 (ip), vehicle: saline with Tween-80
[4] = dose: 100.0 mg/kg/injection, schedule: Q04DX003 (ip), vehicle: saline with Tween-80
[5] = dose: 200.0 mg/kg/injection, schedule: Q04DX003 (ip), vehicle: saline with Tween-80
[6] = dose: 400.0 mg/kg/injection, schedule: Q04DX003 (ip), vehicle: saline with Tween-80
[7] = dose: 50.0 mg/kg/injection, schedule: Q01DX005 (ip), vehicle: saline with Tween-80
[8] = dose: 100.0 mg/kg/injection, schedule: Q01DX005 (ip), vehicle: saline with Tween-80
[9] = dose: 200.0 mg/kg/injection, schedule: Q01DX005 (ip), vehicle: saline with Tween-80
[10] = dose: 60.0 mg/kg/injection, schedule: Q01DX005 (ip), vehicle: saline with Tween-80
[11] = dose: 120.0 mg/kg/injection, schedule: Q01DX005 (ip), vehicle: saline with Tween-80
[12] = dose: 6.25 mg/kg/injection, schedule: Q01DX005 (ip), vehicle: Klucel (hydroxypropylcellulose) (HPC)
[13] = dose: 12.5 mg/kg/injection, schedule: Q01DX005 (ip), vehicle: Klucel (hydroxypropylcellulose) (HPC)
[14] = dose: 25.0 mg/kg/injection, schedule: Q01DX005 (ip), vehicle: Klucel (hydroxypropylcellulose) (HPC)
[15] = dose: 50.0 mg/kg/injection, schedule: Q01DX005 (ip), vehicle: Klucel (hydroxypropylcellulose) (HPC)
[16] = dose: 50.0 mg/kg/injection, schedule: Q01DX009 (ip), vehicle: saline
[17] = dose: 100.0 mg/kg/injection, schedule: Q01DX009 (ip), vehicle: saline
[18] = dose: 200.0 mg/kg/injection, schedule: Q01DX009 (ip), vehicle: saline
[19] = dose: 25.0 mg/kg/injection, schedule: Q01DX009 (ip), vehicle: saline with Tween-80
[20] = dose: 100.0 mg/kg/injection, schedule: Q01DX005 (ip), vehicle: Klucel (hydroxypropylcellulose) (HPC)
[21] = dose: 60.0 mg/kg/injection, schedule: Q01DX005 (ip), vehicle: saline
[22] = dose: 120.0 mg/kg/injection, schedule: Q01DX005 (ip), vehicle: saline
[23] = dose: 240.0 mg/kg/injection, schedule: Q01DX005 (ip), vehicle: saline
[24] = dose: 25.0 mg/kg/injection, schedule: Q01DX005 (ip), vehicle: saline with Tween-80

Measured: T/C

CC(C)(C)N=C(CCNC1CCCCC1)Nc1ccccc1Cl
inactive: [1] 100 % of control | [2] 109 % of control | [3] 101 % of control

CCOC(=O)NC(NC(=O)OCC)c1ccc(C(NC(=O)OCC)NC(=O)OCC)cc1
inactive: dose: 100.0 mg/kg/injection, schedule: Q04DX003 (ip), vehicle: saline 99 % of control | dose: 200.0 mg/kg/injection, schedule: Q04DX003 (ip), vehicle: saline 90 % of control | dose: 400.0 mg/kg/injection, schedule: Q04DX003 (ip), vehicle: saline 89 % of control

CC12CC1CCCC2OC(=O)c1cc([N+](=O)[O-])cc([N+](=O)[O-])c1 (configuration not stated)
inactive: [4] 100 % of control | [5] 95 % of control | [6] 98 % of control

Cn1c2ccccc2c(=O)c2cc(NC(=O)CCCCCCCC(=O)Nc3ccc4c(c3)c(=O)c3ccccc3n4C)ccc21
inactive: [7] 92 % of control | [8] 97 % of control | [9] 101 % of control

CCOC1=C(C)N2/C(=C/C(=O)OC)[C@@H]3C[C@@H](C)C[C@]2(O3)S1
inactive: [10] 101 % of control | [11] 94 % of control | dose: 240.0 mg/kg/injection, schedule: Q01DX005 (ip), vehicle: saline with Tween-80 104 % of control

Clc1cc(Cl)c(OCC#CI)c(Cl)c1Cl
inactive: [1] 86 % of control | [4] 109 % of control | [5] 100 % of control

C=CCn1c(COc2c(I)cc(I)c3cccnc23)n[nH]c1=S
inactive: [12] 100 % of control and 96 % of control | [13] 108 % of control and 115 % of control | [14] 106 % of control | [15] 114 % of control

Fc1ccc(CSC(=S)Nc2ccc(F)c(F)c2)cc1
inactive: dose: 50.0 mg/kg/injection, schedule: Q01DX009 (ip), vehicle: Klucel (hydroxypropylcellulose) (HPC) 111 % of control | [16] 87 % of control | [17] 107 % of control | [18] 108 % of control

N#Cc1ccc(CC(CC(=O)c2ccccc2)c2ccccc2)cc1 (configuration not stated)
inactive: [19] 91 % of control | [1] 89 % of control | [2] 89 % of control | [3] 89 % of control

CC1=Nc2c(C)noc2CC(c2ccccc2O)C1 (configuration not stated)
inactive: [15] 101 % of control | [20] 106 % of control

Cn1cnc2cc(NCCCc3ccccc3)c([N+](=O)[O-])cc2c1=O
inactive: [4] 103 % of control | [5] 101 % of control | [6] 105 % of control

FC(F)(F)C1(C(F)(F)F)O[Te]2(OC(C(F)(F)F)(C(F)(F)F)c3ccccc32)c2ccccc21
inactive: dose: 80.0 mg/kg/injection, schedule: Q04DX002 (ip), vehicle: Klucel (hydroxypropylcellulose) (HPC) 96 % of control | dose: 160.0 mg/kg/injection, schedule: Q04DX002 (ip), vehicle: Klucel (hydroxypropylcellulose) (HPC) 102 % of control | dose: 320.0 mg/kg/injection, schedule: Q04DX002 (ip), vehicle: Klucel (hydroxypropylcellulose) (HPC) 105 % of control

O=c1[nH]c(=O)n(C2OC(CF)C(O)C2O)cc1Br (configuration not stated)
inactive: [15] 96 % of control | [20] 96 % of control | dose: 200.0 mg/kg/injection, schedule: Q01DX005 (ip), vehicle: Klucel (hydroxypropylcellulose) (HPC) 98 % of control

CCc1ccc(N2C(=O)C(CC(=O)O)SC23C(=O)N(Cc2ccccc2)c2ccccc23)cc1 (configuration not stated)
inactive: [10] 94 % of control | [11] 97 % of control

Nc1nc(-c2ccccc2)cc(-c2cc(-c3ccccc3)nc(N)n2)n1
inactive: [21] 100 % of control | [22] 102 % of control | [23] 100 % of control

CCOC(CNc1c[nH]c(=O)[nH]c1=O)OCC
inactive: [1] 100 % of control | [2] 100 % of control | [3] 103 % of control | dose: 400.0 mg/kg/injection, schedule: Q01DX009 (ip), vehicle: saline with Tween-80 100 % of control

O=c1sc(N=Nc2ccccc2)nn1-c1ccccc1
inactive: dose: 50.0 mg/kg/injection, schedule: Q04DX003 (ip), vehicle: other 90 % of control | dose: 100.0 mg/kg/injection, schedule: Q04DX003 (ip), vehicle: other 95 % of control | dose: 200.0 mg/kg/injection, schedule: Q04DX003 (ip), vehicle: other 95 % of control

Cc1nn(CCO)c2nc(N)nc(N)c12
inactive: dose: 100.0 mg/kg/injection, schedule: Q01DX001 (ip), vehicle: suspension in saline 104 % of control | dose: 200.0 mg/kg/injection, schedule: Q01DX001 (ip), vehicle: suspension in saline 101 % of control | dose: 400.0 mg/kg/injection, schedule: Q01DX001 (ip), vehicle: suspension in saline 100 % of control

COc1ccc(S(=O)(=O)N/N=C/c2ncc[nH]2)cc1
inactive: [24] 99 % of control | [7] 99 % of control | [8] 100 % of control

[CH3][Sb]([CH3])[O][Sb]([CH3])[CH3]
inactive: [21] 110 % of control | [22] 111 % of control | [23] 107 % of control

O=C(O)C1CSC(c2ccncc2)N1 (configuration not stated)
inactive: [16] 96 % of control and 97 % of control | [17] 96 % of control | [18] 94 % of control

Cc1cc(Nc2ccc(N(CCCl)CCCl)cc2)cc(C)c1O
active: dose: 6.25 mg/kg/injection, schedule: Q01DX009 (ip), vehicle: saline with Tween-80 151 % of control | dose: 12.5 mg/kg/injection, schedule: Q01DX009 (ip), vehicle: saline with Tween-80 154 % of control and 169 % of control | [19] 169 % of control and 175 % of control

O=S1(=O)CS(=O)(=O)OCCCCO1
active: dose: 12.5 mg/kg/injection, schedule: Q01DX005 (ip), vehicle: saline 176 % of control | dose: 25.0 mg/kg/injection, schedule: Q01DX005 (ip), vehicle: saline 167 % of control and 199 % of control
inactive: dose: 50.0 mg/kg/injection, schedule: Q01DX005 (ip), vehicle: saline 87 % of control

Cn1c(=O)c2nncnc2n(C)c1=O
inactive: [24] 96 % of control | [7] 93 % of control | [8] 93 % of control | [9] 94 % of control

Cc1nc2[nH]cc(-c3ccccc3)c2c(=N)n1-c1ccc(F)cc1
inactive: [12] 101 % of control | [13] 101 % of control | [14] 102 % of control

O=C1NC(CCCl)C(=O)NC1CCCl (configuration not stated)
inactive: [7] 96 % of control | [1] 110 % of control | dose: 50.0 mg/kg/injection, schedule: Q04DX003 (ip), vehicle: saline with Tween-80 95 % of control | [8] 100 % of control | [2] 95 % of control | [4] 100 % of control | [9] 100 % of control | [3] 110 % of control | [5] 100 % of control
